Test system: dyslipidemic patients with or without statin
Test: Example 4 pooled analysis of phase 2 and 3 studies: safety parameters
Assay type: in vivo, human
Description: The present study analyzed data combined from 6 randomized double-blind placebo-controlled studies that were conducted in Japan and continued for 12 weeks unless otherwise noted: a phase 2 study in 224 patients with a history of documented dyslipidemia and plasma TG of 200 mg/dL (2.26 mmol/L) or higher, randomized to placebo, pemafibrate 0.05, 0.1, 0.2, 0.4 mg/day, or fenofibrate 100 mg/day; a phase 3 study in 526 patients with dyslipidemia, high TG levels, and low HDL-C levels, randomized to placebo, pemafibrate 0.1, 0.2, or 0.4 mg/day, or fenofibrate 100 or 200 mg/day; a study in 188 patients with dyslipidemia, randomized to pitavastatin in combination with pemafibrate 0.1, 0.2, or 0.4 mg/day; a 24-week study in 423 patients with dyslipidemia, randomized to pemafibrate 0.2 mg/day (fixed dose) or 0.2 [0.4] mg/day (conditional up-titration) with any statin; a 24-week phase 3 study in 166 patients with type 2 diabetes and hypertriglyceridemia, randomized to placebo or pemafibrate 0.2 or 0.4 mg/day; and a study in 27 patients with hypertriglyceridemia and insulin resistance, randomized to pemafibrate 0.4 mg/day or placebo. All studies were approved by the Institutional Review Board for each study institution and were conducted in accordance with the Declaration of Helsinki and under the guidelines of Good Clinical Practice.
In this study, we evaluated the efficacy and safety of pemafibrate at doses of 0.1 mg/day, 0.2 mg/day, and 0.4 mg/day, with and without statin. The primary efficacy endpoint was percent change in TG from baseline to 12 weeks. The secondary efficacy endpoints were also assessed from baseline to 12 weeks: percent change in HDL-C, LDL-C, non-HDL-C, TC, RemL-C, Apo AI, Apo AII, Apo B, Apo B48, Apo CII, Apo CIII, Apo CIII/Apo CII, and Apo E; percent change in HPLC findings for CM-C, VLDL-C, cholesterol content in 4 subclasses of LDL (large, medium, small, and very small LDLs), and cholesterol content for 5 subclasses of HDL (very large, large, medium, small, and very small HDLs); and changes in fibrinogen and FGF21. The primary safety endpoints were the incidence of adverse events and adverse drug reactions. Secondary safety endpoints were percentage of values above the upper limit of normal range for AST, ALT, sCr and CK, and change in sCr eGFR, CK, AST, ALT, gamma-glutamyl transferase (γ-GT), alkaline phosphatase (ALP), and total bilirubin.
Patients with renal dysfunction were defined as those with baseline eGFR<60 mL/min/1.73 m^2. Analysis was stratified by the presence or absence of renal dysfunction in the concomitant statin group, and efficacy and safety of pemafibrate were evaluated. In efficacy and safety evaluations excluding AEs, ADRs, and cutoff values for AST, ALT, sCr, and CK, findings were combined for pemafibrate subgroups receiving doses of 0.1 mg/day, 0.2 mg/day, and 0.4 mg/day.
For each lipid parameter, gel filtration HPLC was performed at Skylight Biotech, Inc. Other measurements were performed at LSI Medience Corporation. The FAS was used for analyzing efficacy parameters of effects on lipids, fibrinogen, and FGF21. The safety analysis set was used for safety parameters and included all patients who received at least one dose of the study drug. For lipid parameters, fibrinogen, and FGF21, LS means (95% confidence interval) were calculated at Week 12 (LOCF) using analysis of covariance (ANCOVA) with baseline values as the co-variable within each category. For safety parameters, LS means (95% confidence interval) were calculated at Week 12 using ANCOVA with baseline values as the co-variable within each category. SAS version 9.2 was used for analyses.

[1] = Without Statin, 0.1 mg/day, n=82
[2] = Without Statin, 0.2 mg/day, n=202
[3] = Without Statin, 0.4 mg/day, n=173
[4] = Without Statin, 0.4 mg/day, n=174

## CC[C@@H](Oc1cccc(CN(CCCOc2ccc(OC)cc2)c2nc3ccccc3o2)c1)C(=O)O [Pemafibrate, (2R)-2-[3-({1,3-benzoxazol-2-yl[3-(4-methoxyphenoxy)propyl]amino}methyl)phenoxy]butanoic acid]
With Statin, 0.1 mg/day, n=45
  ADE Leading to withdrawal, number of patients: 1
  ADE Leading to withdrawal, percentage of patients: (2.2) percentage
  ADE Serious, number of patients: 0
  ADE Total, number of patients: 3
  ADE Total, percentage of patients: (6.7) percentage
  AE Leading to withdrawal, number of patients: 2
  AE Leading to withdrawal, percentage of patients: (4.4) percentage
  AE Serious, number of patients: 2
  AE Serious, percentage of patients: (4.4) percentage
  AE Total, number of patients: 29
  AE Total, percentage of patients: (64.4) percentage
  ALT ≥ ULN × 3, number of patients: 1
  ALT ≥ ULN × 3, percentage of patients: (2.2) percentage
  AST ≥ ULN × 3, number of patients: 0
  CK ≥ 2.5 and < ULN × 5, number of patients: 2
  CK ≥ 2.5 and < ULN × 5, percentage of patients: (4.4) percentage
  CK ≥ 5 and < ULN × 10, number of patients: 0
  CK ≥ ULN × 10, number of patients: 0
  sCr ≥ ULN, number of patients: 8
  sCr ≥ ULN, percentage of patients: (17.8) percentage
With Statin, 0.2 mg/day, n=382
  ADE Leading to withdrawal, number of patients: 11
  ADE Leading to withdrawal, percentage of patients: (2.9) percentage
  ADE Serious, number of patients: 2
  ADE Serious, percentage of patients: (0.5) percentage
  ADE Total, number of patients: 36
  ADE Total, percentage of patients: (9.4) percentage
  AE Leading to withdrawal, number of patients: 12
  AE Leading to withdrawal, percentage of patients: (3.1) percentage
  AE Serious, number of patients: 6
  AE Serious, percentage of patients: (1.6) percentage
  AE Total, number of patients: 164
  AE Total, percentage of patients: (42.9) percentage
  ALT ≥ ULN × 3, number of patients: 0
  AST ≥ ULN × 3, number of patients: 1
  AST ≥ ULN × 3, percentage of patients: (0.3) percentage
  CK ≥ 2.5 and < ULN × 5, number of patients: 7
  CK ≥ 2.5 and < ULN × 5, percentage of patients: (1.6) percentage
  CK ≥ 5 and < ULN × 10, number of patients: 3
  CK ≥ 5 and < ULN × 10, percentage of patients: (0.6) percentage
  CK ≥ ULN × 10, number of patients: 1
  CK ≥ ULN × 10, percentage of patients: (0.3) percentage
  sCr ≥ ULN, number of patients: 61
  sCr ≥ ULN, percentage of patients: (16.0) percentage
With Statin, 0.4 mg/day, n=72
  ADE Leading to withdrawal, number of patients: 0
  ADE Serious, number of patients: 0
  ADE Total, number of patients: 2
  ADE Total, percentage of patients: (2.8) percentage
  AE Leading to withdrawal, number of patients: 0
  AE Serious, number of patients: 0
  AE Total, number of patients: 34
  AE Total, percentage of patients: (47.2) percentage
  ALT ≥ ULN × 3, number of patients: 1
  ALT ≥ ULN × 3, percentage of patients: (1.4) percentage
  AST ≥ ULN × 3, number of patients: 1
  AST ≥ ULN × 3, percentage of patients: (1.4) percentage
  CK ≥ 2.5 and < ULN × 5, number of patients: 2
  CK ≥ 2.5 and < ULN × 5, percentage of patients: (2.8) percentage
  CK ≥ 5 and < ULN × 10, number of patients: 0
  CK ≥ ULN × 10, number of patients: 0
  sCr ≥ ULN, number of patients: 11
  sCr ≥ ULN, percentage of patients: (15.3) percentage
[1]
  ADE Leading to withdrawal, number of patients: 1
  ADE Leading to withdrawal, percentage of patients: (1.2) percentage
  ADE Serious, number of patients: 0
  ADE Total, number of patients: 3
  ADE Total, percentage of patients: (3.7) percentage
  AE Leading to withdrawal, number of patients: 2
  AE Leading to withdrawal, percentage of patients: (2.4) percentage
  AE Serious, number of patients: 1
  AE Serious, percentage of patients: (1.2) percentage
  AE Total, number of patients: 27
  AE Total, percentage of patients: (32.9) percentage
  ALT ≥ ULN × 3, number of patients: 0
  AST ≥ ULN × 3, number of patients: 0
  CK ≥ 2.5 and < ULN × 5, number of patients: 2
  CK ≥ 2.5 and < ULN × 5, percentage of patients: (2.4) percentage
  CK ≥ 5 and < ULN × 10, number of patients: 0
  CK ≥ ULN × 10, number of patients: 0
  sCr ≥ ULN, number of patients: 15
  sCr ≥ ULN, percentage of patients: (18.3) percentage
[2]
  ADE Leading to withdrawal, number of patients: 2
  ADE Leading to withdrawal, percentage of patients: (1.0) percentage
  ADE Serious, number of patients: 1
  ADE Serious, percentage of patients: (0.5) percentage
  ADE Total, number of patients: 14
  ADE Total, percentage of patients: (6.9) percentage
  AE Leading to withdrawal, number of patients: 3
  AE Leading to withdrawal, percentage of patients: (1.5) percentage
  AE Serious, number of patients: 4
  AE Serious, percentage of patients: (2.0) percentage
  AE Total, number of patients: 78
  AE Total, percentage of patients: (38.6) percentage
  ALT ≥ ULN × 3, number of patients: 0
  AST ≥ ULN × 3, number of patients: 0
  CK ≥ 2.5 and < ULN × 5, number of patients: 3
  CK ≥ 2.5 and < ULN × 5, percentage of patients: (1.5) percentage
  CK ≥ 5 and < ULN × 10, number of patients: 0
  CK ≥ ULN × 10, number of patients: 0
  sCr ≥ ULN, number of patients: 34
  sCr ≥ ULN, percentage of patients: (16.8) percentage
[3]
  ALT ≥ ULN × 3, number of patients: 0
  AST ≥ ULN × 3, number of patients: 1
  AST ≥ ULN × 3, percentage of patients: (0.6) percentage
  CK ≥ 2.5 and < ULN × 5, number of patients: 0
  CK ≥ 5 and < ULN × 10, number of patients: 1
  CK ≥ 5 and < ULN × 10, percentage of patients: (0.6) percentage
  CK ≥ ULN × 10, number of patients: 1
  CK ≥ ULN × 10, percentage of patients: (0.6) percentage
  sCr ≥ ULN, number of patients: 22
  sCr ≥ ULN, percentage of patients: (12.7) percentage
[4]
  ADE Leading to withdrawal, number of patients: 3
  ADE Leading to withdrawal, percentage of patients: (1.7) percentage
  ADE Serious, number of patients: 1
  ADE Serious, percentage of patients: (0.6) percentage
  ADE Total, number of patients: 16
  ADE Total, percentage of patients: (9.2) percentage
  AE Leading to withdrawal, number of patients: 6
  AE Leading to withdrawal, percentage of patients: (3.4) percentage
  AE Serious, number of patients: 2
  AE Serious, percentage of patients: (1.1) percentage
  AE Total, number of patients: 60
  AE Total, percentage of patients: (34.5) percentage

Reference: patent publication US11446282B2, “Methods of treating mixed dyslipidemia and hypertriglycertdemia” (Kowa Company, Ltd., priority 2017, dated 2022)
